# Experimental data reported in article PMC6131501, “Urate transporter inhibitor lesinurad is a selective peroxisome proliferator-activated receptor gamma modulator (sPPARγM) in vitro” (Scientific Reports, 2018).
# Values joined by “and” are separate entries in the source; they are usually repeats but may differ in a detail not shown here. Identical values can stand only once. “Also recorded” adds a separate entry of the source. Like-named read-outs stand apart in the source and are kept apart here.
# Tests used:
# [1] = target: T1, recombinant PPARγ ligand binding domain (Homo sapiens, UniProt P37231); test: Isothermal titration calorimetry (ITC)
# T1 sequence (P37231 238-503 limits assumed): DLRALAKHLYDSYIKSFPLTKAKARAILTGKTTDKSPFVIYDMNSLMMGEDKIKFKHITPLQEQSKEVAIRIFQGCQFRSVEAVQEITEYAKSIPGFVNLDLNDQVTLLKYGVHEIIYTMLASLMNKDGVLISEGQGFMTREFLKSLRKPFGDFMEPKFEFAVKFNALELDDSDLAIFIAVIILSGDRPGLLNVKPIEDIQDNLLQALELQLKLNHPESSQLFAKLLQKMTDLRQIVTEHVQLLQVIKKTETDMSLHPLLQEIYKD
# Description: (§1) To confirm direct modulation of PPARγ by lesinurad, we analyzed their interaction by isothermal titration calorimetry (ITC). Due to limited solubility of lesinurad, recombinant PPARγ ligand binding domain (LBD) protein was (reversely) titrated to the drug.
# Isothermal titration calorimetry (ITC) was conducted on an Affinity ITC (TA Instruments Affinity ITC). Recombinant PPARγ ligand binding domain protein (138 μM) and lesinurad (40 μM) were each dissolved in a HEPES buffer (25 mM; adjusted to pH 7.5 with KOH; further containing 150 mM KF, 10% glycerol (w/w), 1% DMSO (v/v) and 5 mM DTT). The ITC instrument was adjusted to a temperature of 25 °C and the stirring rate was set at 75 rpm. 190 μL lesinurad solution were filled into the reaction cell and PPARγ ligand binding domain solution was titrated in 41 injections. […] An interval of 200 s was maintained between individual injections. The heats of dilution resulting from titrating PPARγ ligand binding domain protein solution into the buffer solution were recorded in an additional ITC run and subtracted from the raw ITC data obtained for lesinurad.
# ITC raw data was analyzed using NanoAnalyze software package (version 3.7.5). An independent binding model was used to fit the reaction enthalpy (ΔH), binding affinity constant (Kd), and stoichiometry (n). Free energy change (ΔG) was calculated from the equation ΔG = −RT ln K and the entropy (ΔS) was calculated from ΔG = ΔH−TΔS.
# 3T3-L1 adipocytes = test: Differentiation of 3T3-L1 adipocytes, Oil Red O staining; format: cell-based, murine; conditions: rosiglitazone 2 μM; lesinurad up to 50 μM
# Description: For this, 3T3-L1 cells were treated with insulin, dexamethasone and isobutylmethylxanthine (IBMX) to induce their differentiation into mature adipocytes. […] 3T3-L1 cells were subcultured in DMEM containing 10% newborn calf serum in a humidified atmosphere at 37 °C, 5% CO2. Cells were differentiated into adipocytes within 14 days according to the method[54] reported by Zebisch and colleagues. In brief, cells were seeded in 6-well plates ([…]). […] At day 5, medium was changed to contain only insulin for another two days. Cells were then kept for lipid droplet accumulation in basal medium without additions until day 15. […] Differentiation of 3T3-L1 cells to adipocytes was confirmed by Oil Red O staining. For this, cells were washed with PBS and then fixed for 60 min with a formaldehyde solution (4% in PBS). Subsequently, cells were rinsed with 60% isopropanol and incubated with Oil Red O solution (0.3%) for 120 min.
# [2] = tested on: PPARγ-regulated genes in 3T3-L1 adipocytes; test: PPARγ target gene quantification in 3T3-L1 adipocytes (qPCR); format: cell-based, murine; conditions: 3T3-L1 adipocytes, rosiglitazone 2 μM, 1 30 μM, mean ± SEM, n = 3
# Description: 3T3-L1 cells were cultured and differentiated as described above. Cells were then lysed using TRIzol reagent (Ambion, Life Technologies, Carlsbad, CA, USA), and mRNA was isolated following the manufacturer’s protocol. DNA contaminations were digested using DNase (DNase I, RNase-free kit; Thermo Scientific, Waltham, MA, USA) and mRNA concentrations were measured with a NanoDrop2000 spectrophotometer (Thermo Scientific, Waltham, MA, USA). Subsequently, reverse transcription was performed using the high capacity RNA-to-cDNA kit (Applied Biosystems, Foster City, CA, USA). Quantitative real-time PCR was performed using specific primers for CD36, […] and CPT1A with a StepOnePlus real-time PCR system (Applied Biosystems, Foster City, CA, USA). Non-POU domain containing octamer binding protein (NonO) was used as reference gene for 3T3-L1. All samples were measured in duplicate and were analyzed using the ΔΔCt method. The following PCR primers were used: Adiponectin: 5′-TGACGACACCAAAAGGGCTC-3′ (fwd) and 5′-CACAAGTTCCCTTGGGTGGA-3′ (rev); CD36: 5′-TGCTGGAGCTGTTATTGGTG-3′ (fwd) and 5′-CATGAGAATGCCTCCAAACA-3′ (rev); FABP4: 5′-AGAAGTGGGAGTGGGCTTTG-3′ (fwd) and 5′-ACTCTCTGACCGGATGGTGA-3′ (rev); GLUT4: 5′-TGAAGAACGGATAGGGAGCAG-3′ (fwd) and 5′-GAAGTGCAAAGGGTGAGTGAG-3′ (rev); NonO: 5′-TGCTCCTGTGCCACCTGGTACTC-3′ (fwd) and 5′-CCGGAGCTGGACGGTTGAATGC-3′ (rev).
# Results (expressed as mean ± SEM % relative mRNA expression; n = 3): Adiponectin: untreated (0.1% DMSO): 124 ± 45%; […];
# [3] = Control reporter experiment in absence of a hybrid receptor; format: cell-based; conditions: 30 μM, w/o hybrid receptor
# Source text: These in vitro test systems are based on a constitutively expressed hybrid receptor composed of the ligand binding domain of the respective human nuclear receptor and the DNA binding domain of the yeast receptor Gal4. A Gal4-inducible firefly luciferase serves as reporter gene and a constitutively expressed renilla luciferase is used for normalization of transfection efficacy and internal toxicity control[18],[19].
# [4] = Aqueous solubility (noted for ITC); format: physicochemical
# Source text: as §1
# PPARγ = tested on: PPARγ; design: method as in PMID 27716403; conditions: up to 100 μM; non-human cell line overexpressing PPARγ; cited from earlier work
# [5] = cited from earlier work; for peak plasma levels: oral dose of 200 mg
# [6] = design: method as in PMID 27716403, PMID 26951201; conditions: cited from earlier work
# CYP3A4 = tested on: CYP3A4; design: method as in PMID 28067999; conditions: cited from earlier work
smiles,measurement,setting,value
O=C(O)CSc1nnc(Br)n1-c1ccc(C2CC2)c2ccccc12 [lesinurad],Kd,"[1]; 25 °C, PPARγ LBD titrated to drug, independent binding model",1300 nM
same,ΔS,"[1]; 25 °C, calculated from ΔG = ΔH−TΔS","27 J/mol·K and 26,99 J/mol·K"
same,n (stoichiometry),[1]; value printed in the picture of Fig. 4,"0,987"
same,lipid accumulation during differentiation (Oil Red O staining),3T3-L1 adipocytes,lacked this adipogenic effect; also recorded: does not induce fat accumulation
same,CD36 relative mRNA expression,[2]; untreated 122 ± 43%,205 ± 76%
same,Adiponectin relative mRNA expression,[2]; untreated 124 ± 45%,175 ± 63%
same,GLUT4 relative mRNA expression,[2]; untreated 145 ± 61%,128 ± 43%
same,FABP4 relative mRNA expression,[2]; untreated 161 ± 72%,151 ± 58%
same,reporter transactivation in absence of a hybrid receptor,[3],no reporter transactivation
same,aqueous solubility,[4],limited aqueous solubility
same,PPARγ activation reported by Miner et al.,PPARγ,does not activate PPARγ
same,free concentration,[5]; free plasma concentration after protein binding,300 to 600 nM
same,peak plasma levels,[5]; ref 40,15 µM
same,peak plasma levels,[5]; ref 41,17 µM
same,mean peak plasma levels,"[5]; single 600 mg oral dose, healthy men",22 µg/mL
same,plasma protein binding,[6],98%
same,CYP3A4 induction,CYP3A4,CYP3A4 inducer
